Test results reported in article PMC3341351, “Down-Regulation of GABAA Receptor via Promiscuity with the Vasoactive Peptide Urotensin II Receptor. Potential Involvement in Astrocyte Plasticity” (PLoS ONE, 2012).

Experiments:
Assay type in all cases: cell-based
[1] = test system: β3 GABAAR subunit in human U87 glioma; test: Cell surface ELISA of β3 GABAAR subunit in U87 glioma; settings: hUII 10^−8 M, 30 min, 37°C, at least 3 independent experiments in triplicates
Protocol: The human cell line from glioblastoma U87 was obtained from the American Type Culture Collection (LGC Standards, Molsheim, France). U87 cells were maintained in DMEM containing 10% FBS and 1% sodium pyruvate. NHA-Astrocytes (Lonza, Walkersville, MD, USA) were cultivated in DMEM culture medium supplemented with 2 mM glutamine, 5 mM HEPES, 1% non essential amino acids, 1% sodium pyruvate, B27, 25 ng/ml EGF, 1% of the antibiotic-antimycotic solution and 10% FBS. All cells were incubated at 37°C in a humidified atmosphere containing 5% CO2. Culture media were replaced every three days.
Cells were plated at 50 000 cells/well in 96-well plates coated with 0.1 mg/ml poly-L-ornithine (Sigma-Aldrich). […] Cells were fixed with 4% PFA in PBS for 5 min at RT, washed in PBS, and then permeabilized in 0.05% triton X100 (only for permeabilized cells) and non specific binding were blocked with PBS containing 1% FBS for 30 min at RT. […] The cells were washed four times with PBS, a colorimetric alkaline phosphatase substrate was added (SuperSignal ELISA, Thermo scientific, Fisher) and the resulting color reaction was measured using a Viktor multilabel plate reader (PerkinElmer, Courtaboeuf, France). Background absorbance from samples transfected with non-tagged receptors or from cells without first antibodies were systematically measured. […]

[2] = test system: α2β1 GABAAR co-expressed with human UT; test: Patch-clamp of Iso-evoked current in CHO-UT expressing α2β1 GABAAR; settings: hUII 10^−13 to 10^−7 M; Iso 10^−4 M, 2 s; −60 mV
[3] = test system: α2β3γ2 GABAAR in the absence of UT; test: Patch-clamp of Iso-evoked current in CHO expressing α2β3γ2 GABAAR without UT; settings: DMCM 10^−5 M; hUII and URP 10^−8 M; [Orn^5]-URP and palosuran 10^−6 M; Iso 10^−4 M, 2 s; n = 3–18
Protocol: For transfection, cells were trypsinized (0.05%), triturated in HamF-12 containing 10% FBS media, pelleted by centrifugation, resuspended in 100 µl solution V for nucleofection by an Amaxa Nucleofector Device (Köln, Germany; set to program U-016). Experiments were performed on normal CHO or on the stable CHO-UT cells and transiently transfected with combinations of cDNA encoding α2β3γ2, α2β3γ1, α2β1γ2, α2β3γ1, α2β3, β3γ2 (4 µg of cDNA total/transfection) GABAAR subunits. Cells were seeded on 14-mm poly-L-lysine-coated glass bottom insert dishes at 5×10^5 cells in a volume of 0.5 ml/dish. Cells were incubated overnight at 37°C in a humidified incubator (5% CO2) during 16 h before electrophysiological or immunocytochemical experiments.
GABAA receptor cDNA clones; α2, β1, β3, γ1 and γ2L engineered into the expression vector pCDM8 ([…], β1, γ2) or pcDNA/Amp (β3, γ1), were generously provided by Dr Wingrove (Merk Sharp and Dohme, Harlow, UK). To obtain β3 ^HA or γ2 ^HA epitope-tagged subunits, β3 or γ2 cDNA was amplified and the PCR product was subcloned using the SalI and NotI sites of pCMV-HA (Table S2) after digestion by the same restriction enzymes.
The conventional whole-cell configuration of the patch-clamp technique was used to study the GABA-gated currents in astrocytes and granule neurons, UT stably transfected CHO, CHO-UT, and CHO transiently transfected with diverse variants of UT and GABAAR subunits. After 24-h transfection, cell culture coverslips were placed in a small chamber (1.5 ml) on a stage of a right microscope DMLFSA (Leica, Heidelberg, Germany) and superfused continuously with the following bath solution containing (in mM): NaCl, 150; KCl, 2.5; HEPES, 5; CaCl2, 2; MgCl2, 1; glucose, 10 (pH 7.4 adjusted with NaOH). The patch pipettes were fabricated from 1.5 mm (outer diameter) soft glass tubes on a two-step vertical pipette puller (List-Medical, L/M-3P-A, Darmstadt, Germany). […] ATP and GTP were added to the internal solution used to fill electrode just before recording. All recordings were obtained at RT with cells voltage-clamped at −70 mV. The GABAA receptor agonist isoguvacine was prepared in the extracellular solution and was applied to cells by pneumatic pressure ejection. To prevent desenzitization, isoguvacine was more often ejected during 5 s at 2-min intervals. ATP, GTP, or guanosine 5′-O-(2-thiodiphosphate) (GDPβS) were administered through the patch pipette solution. We investigated the effect of competitive inhibition of GDP-GTP exchange by including GDPβS in the pipette solution (in addition to the normal amount of GTP). For GDPβS and the KIC, immediately following patch rupture, GABA current recordings were performed and the experiment was commenced after an equilibration period of 15 min. […]

“ETPDCFWKYCV (disulfide) [hUII, human urotensin II, synthesized by solid phase methodology]” was tested, and the “β3-associated GABAAR subunit internalization, without UT319–389” value [1] was 20%, the “Inhibitory effect on Iso-evoked current, α2β1” value [2] was “totally ineffective” and the “Effect on Iso-evoked current in the absence of UT” value [3] was “failed to affect the amplitude of the current”.
